From ChEMBL document CHEMBL2440116, “Structure-activity relationships of 2-aminothiazoles effective against Mycobacterium tuberculosis” (Bioorg Med Chem, 2013)

Test system: Mycobacterium tuberculosis
Assay: Induction of resistant in Mycobacterium tuberculosis H37Rv in Middlebrook 7H9 broth with glucose at 10 times MIC after 4 to 5 weeks relative to control
Assay type: functional

O=C(Nc1nc(-c2ccccn2)cs1)c1cccc(Br)c1
fold change (FC): 2
